Target: IDH1 R132H (Homo sapiens, UniProt O75874, R132H)
Assay: Assay for IDH1 R132H inhibitors (NADPH/aKG, resazurin detection)
Format: biochemical
Conditions: Table 3; enzyme assay, 50 minutes at room temperature; read-out: IC50 (IDH1 R132H Inhibition)
Protocol: Assays were conducted in a volume of 76 μl assay buffer (150 mM NaCl, 10 mM MgCl2, 20 mM Tris pH 7.5, 0.03% bovine serum albumin) as follows in a standard 384-well plate: To 25 ul of substrate mix (8 uM NADPH, 2 mM aKG), 1 μl of test compound was added in DMSO. The plate was centrifuged briefly, and then 25 μl of enzyme mix was added (0.2 μg/ml IDH1 R132H) followed by a brief centrifugation and shake at 100 RPM. The reaction was incubated for 50 minutes at room temperature, then 25 μl of detection mix (30 μM resazurin, […]) was added and the mixture further incubated for 5 minutes at room temperature. The conversion of resazurin to resorufin was detected by fluorescent spectroscopy at Ex544 Em590 c/o 590.

Sequence of IDH1 R132H (O75874 whole entry R132H): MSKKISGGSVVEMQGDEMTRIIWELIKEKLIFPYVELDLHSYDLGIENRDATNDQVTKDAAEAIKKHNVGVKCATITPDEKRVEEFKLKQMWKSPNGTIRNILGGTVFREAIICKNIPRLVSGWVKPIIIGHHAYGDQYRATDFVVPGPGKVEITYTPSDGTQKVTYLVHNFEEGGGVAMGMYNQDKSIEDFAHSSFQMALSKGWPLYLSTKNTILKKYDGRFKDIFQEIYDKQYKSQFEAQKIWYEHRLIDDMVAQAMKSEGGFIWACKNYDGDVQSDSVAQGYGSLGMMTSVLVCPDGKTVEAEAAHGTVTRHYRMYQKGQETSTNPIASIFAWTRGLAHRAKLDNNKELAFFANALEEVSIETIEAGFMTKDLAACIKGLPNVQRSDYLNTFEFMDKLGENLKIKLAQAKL

Structure (SMILES)	IC50
CC(C)c1cc(-c2ccccc2)c(C#N)c(N2CCN(C(=O)c3ccco3)CC2c2ccccc2)n1 (stereo not drawn) [Compound 167, 2-(4-(furan-2-carbonyl)-2-phenylpiperazin-1-yl)-6-isopropyl-4-phenylnicotinonitrile]	1000 to 5000 nM
CC(C)c1cc(-c2cccc(F)c2)c(C#N)c(N2CCN(C(=O)c3ccco3)C(C)C2)n1 (stereo not drawn) [Compound 127, 4-(3-fluorophenyl)-2-(4-(furan-2-carbonyl)-3-methylpiperazin-1-yl)-6-isopropylnicotinonitrile]	5000 to 15000 nM
COc1ccccc1-c1cc(C#N)c(N2CCN(C(=O)c3ccoc3C)[C@H](C)C2)nc1C(C)C [Compound 178, (R)-6-isopropyl-5-(2-methoxyphenyl)-2-(3-methyl-4-(2-methylfuran-3-carbonyl)piperazin-1-yl)nicotino-nitrile]	1000 to 5000 nM
COCCC(=O)N1CCN(c2nc(C3CC3)c(-c3ccc4ccccc4c3)c(C)c2C#N)C[C@H]1C [Compound 259, (R)-6-cyclopropyl-2-(4-(3-methoxypropanoyl)-3-methylpiperazin-1-yl)-4-methyl-5-(naphthalen-2-yl)nicotinonitrile]	≤ 1000 nM
CC(C)c1nc(N2CCN(C(=O)Cc3cccs3)[C@H](C(C)C)C2)c(C#N)cc1-c1ccc(C(F)(F)F)cc1 [Compound 196, (R)-6-isopropyl-2-(3-isopropyl-4-(2-(thiophen-2-yl)acetyl)piperazin-1-yl)-5-(4-(trifluoromethyl)phenyl)-nicotinonitrile]	1000 to 5000 nM
CC(C)c1nc(N2CCN(C(=O)c3ccco3)CC2c2ccccc2)c(C#N)cc1-c1ccccc1 (stereo not drawn) [Compound 166, 2-(4-(furan-2-carbonyl)-2-phenylpiperazin-1-yl)-6-isopropyl-5-phenylnicotinonitrile]	5000 to 15000 nM
COCCC(=O)N1CCN(c2nc(C3CC3)c(-c3ccc(F)cc3)c(C)c2C#N)C[C@H]1C [Compound 241, (R)-6-cyclopropyl-5-(4-fluorophenyl)-2-(4-(3-methoxypropanoyl)-3-methylpiperazin-1-yl)-4-methylnicotinonitrile]	≤ 1000 nM
Cc1ccc(-c2cc(C#N)c(N3CCN(C(=O)c4ccoc4)[C@H](C)C3)nc2C(C)C)cc1 [Compound 179, (R)-2-(4-(furan-3-carbonyl)-3-methylpiperazin-1-yl)-6-isopropyl-5-p-tolylnicotinonitrile]	1000 to 5000 nM
CC(C)c1nc(N2CCN(C(=O)c3ccoc3)C(c3ccccc3)C2)c(C#N)cc1-c1ccccc1 (stereo not drawn) [Compound 153, 2-(4-(furan-3-carbonyl)-3-phenylpiperazin-1-yl)-6-isopropyl-5-phenylnicotinonitrile]	5000 to 15000 nM
Cc1occc1C(=O)N1CCN(c2nc(C(C)C)c(-c3ccc(F)cc3)cc2C#N)C[C@H]1C [Compound 199, (R)-5-(4-fluorophenyl)-6-isopropyl-2-(3-methyl-4-(2-methylfuran-3-carbonyl)piperazin-1-yl)nicotinonitrile]	1000 to 5000 nM

Same assay, conditions: enzyme assay of Example 12; read-out: IDH1R132H IC50

Structure (SMILES)	IC50
N#Cc1cc(-c2cnnc3ccccc23)c(C2CC2)nc1N1CCN(C(=O)C2CC2)[C@H](C2CC2)C1 [Compound 495, (R)-5-(cinnolin-4-yl)-2-(4-(cyclopropanecarbonyl)-3-cyclopropylpiperazin-1-yl)-6-cyclopropylnicotinonitrile]	500 to 1000 nM
N#Cc1cc(-c2cccc3c2CNC3=O)c(C2CC2)nc1N1CCN(C(=O)C2CC2)[C@H](C2CC2)C1 [Compound 464, (R)-2-(4-(Cyclopropanecarbonyl)-3-cyclopropylpiperazin-1-yl)-6-cyclopropyl-5-(1-oxoisoindolin-4-yl)nicotinonitrile]	500 to 1000 nM
C[C@@H]1CN(c2nc(C3CC3)c(-c3ccc(C#N)nc3)cc2C#N)CCN1C(=O)C1CC1 [Compound 583, (R)-6-(4-(cyclopropanecarbonyl)-3-methylpiperazin-1-yl)-2-cyclopropyl-3,3′-bipyridine-5,6′-dicarbonitrile]	500 to 1000 nM
C#Cc1cc(-c2cc(C#N)c(N3CCN(C(=O)C4CC4)[C@H](C)C3)nc2C2CC2)ccn1 [Compound 593, (R)-6-(4-(cyclopropanecarbonyl)-3-methylpiperazin-1-yl)-2-cyclopropyl-2′-ethynyl-3,4′-bipyridine-5-carbonitrile]	500 to 1000 nM
N#Cc1cc(-c2cncc(C(N)=O)c2)c(C2CC2)nc1N1CCN(C(=O)CC(F)(F)F)[C@H](C2CC2)C1 [Compound 540, (R)-5′-cyano-2′-cyclopropyl-6′-(3-cyclopropyl-4-(3,3,3-trifluoropropanoyl)piperazin-1-yl)-[3,3′-bipyridine]-5-carboxamide]	< 500 nM
N#Cc1cc(-c2ccnc(Cl)c2F)c(C2CC2)nc1N1CCN(C(=O)C2CC2)[C@H](C2CC2)C1 [Compound 509, (R)-2′-chloro-6-(4-(cyclopropanecarbonyl)-3-cyclopropylpiperazin-1-yl)-2-cyclopropyl-3′-fluoro-3,4′-bipyridine-5-carbonitrile]	500 to 1000 nM
N#Cc1cc(-c2cnn(CC(N)=O)c2)c(C2CC2)nc1N1CCN(C(=O)C2CC2)[C@H](C2CC2)C1 [Compound 501, (R)-2-(4-(5-cyano-6-(4-(cyclopropanecarbonyl)-3-cyclopropylpiperazin-1-yl)-2-cyclopropylpyridin-3-yl)-1H-pyrazol-1-yl)acetamide]	500 to 1000 nM
C=Cc1cc(-c2cc(C#N)c(N3CCN(C(=O)CN4CCCC4=O)[C@H](C4CC4)C3)nc2C2CC2)ccn1 [Compound 814, (R)-2-cyclopropyl-6-(3-cyclopropyl-4-(2-(2-oxopyrrolidin-1-yl)acetyl)piperazin-1-yl)-2′-vinyl-3,4′-bipyridine-5-carbonitrile]	500 to 1000 nM
COCCC(=O)N1CCN(c2nc(C3CC3)c(OCc3cccc(N)c3)cc2C#N)C[C@H]1C [Compound 341]	< 500 nM
N#Cc1cc(-c2cc(Cl)nc3ccccc23)c(C2CC2)nc1N1CCN(C(=O)C2CC2)[C@H](C2CC2)C1 [Compound 543, (R)-5-(2-chloroquinolin-4-yl)-2-(4-(cyclopropanecarbonyl)-3-cyclopropylpiperazin-1-yl)-6-cyclopropylnicotinonitrile]	500 to 1000 nM
C=Cc1cc(-c2c(C3CC3)nc(N3CCN(C(=O)CCCCC)[C@H](C4CC4)C3)c(C#N)c2C)ccn1 [Compound 827, (R)-2-cyclopropyl-6-(3-cyclopropyl-4-hexanoylpiperazin-1-yl)-4-methyl-2′-vinyl-3,4′-bipyridine-5-carbonitrile]	< 500 nM
C=CS(=O)(=O)N(c1cccc(-c2cc(C#N)c(N3CCN(C(=O)CCOC)[C@H](C)C3)nc2C2CC2)c1)S(=O)(=O)C=C [Compound 440, (R)—N-(3-(5-cyano-2-cyclopropyl-6-(4-(3-methoxypropanoyl)-3-methylpiperazin-1-yl)pyridin-3-yl)phenyl)-N-(vinylsulfonyl)ethenesulfonamide]	< 500 nM
COCCC(=O)N1CCN(c2nc(C3CC3)c(-c3ccccc3COC)c(C)c2C#N)C[C@H]1C [Compound 348, (R)-6-cyclopropyl-5-(2-methoxymethyl-phenyl)-2-[4-(3-methoxy-propionyl)-3-methyl-piperazin-1-yl]-4-methyl-nicotinonitrile]	< 500 nM
C=Cc1cc(-c2cc(C#N)c(N3CCN(C(=O)CC4CCC(=O)O4)[C@H](C4CC4)C3)nc2C2CC2)ccn1 (stereo partly drawn) [Compound 802, 2-cyclopropyl-6-((3R)-3-cyclopropyl-4-(2-(5-oxotetrahydrofuran-2-yl)acetyl)piperazin-1-yl)-2′-vinyl-[3,4′-bipyridine]-5-carbonitrile]	< 500 nM
